# Source: patent publication US12446582B2 (priority 2018, dated 2025)
# “Also recorded” adds a separate entry of the source. Like-named read-outs stand apart in the source and are kept apart here.
# Tested on: Fusarium pseudograminearum
# [1] = average of 5 trials, compared to untreated T1
# [2] = average of 5 trials, compared to untreated T1, listed as T2
# [3] = average of 5 trials, untreated T1 = 100.00
# Protocol: 5 wheat trial locations were selected across the main wheat growing areas of Australia. All five sites have a history of crown rot and high stubble load coming out of susceptible rotation crop. Soil samples were taken to confirm the pathogen pressure. The seeds were treated with a Rotostat Seed Treater with 800 ml slurry volume per 100 kg of seeds. Planting for the trials took place between 2 June and 14 June using a 6 to 8 row planter. The number of plants was counted 35-65 days after sowing on 2×5 m row. The number of wheat plants with white heads per plot was assessed at full ripe and recorded as % compared to the untreated plants which were taken as reference. Yield grain data was taken at the end of the season.
smiles,measurement,setting,value
O=C(NC1CCC1c1ccc(Cl)cc1Cl)c1cccnc1C(F)(F)F (stereo not drawn) [Compound 1],Final emergence counts % increase compared to T1,[1],7.52%
same,Plot yields % increase compared to T1,[1],26%
same,White heads % reduction compared to T1,[1],34%
same,Plot yields % increase compared to T1,[2],26.32%
same,White heads % reduction compared to T1,[2],34.20%
same,White heads Average,"average of 5 trials, % compared to untreated T1 = 100.00",66.80%
same,Final emergence counts Average,[3],107.52
same,Plot yields Average,[3],126.32
same,White heads AR0T020,"trial AR0T020, Merredin, WA, variety Cobra, seed treatment, % compared to untreated T1 = 100.00, at full ripe",32.86%
same,Plot yields AR0T020,"trial AR0T020, Merredin, WA, variety Cobra, seed treatment, full plot harvest, untreated T1 = 100.00",127.83
same,Final emergence counts AR0T020,"trial AR0T020, Merredin, WA, variety Cobra, seed treatment, untreated T1 = 100.00",101.87
same,White heads AR0T021,"trial AR0T021, Tammin, WA, variety Cobra, seed treatment, % compared to untreated T1 = 100.00, at full ripe",28.45%
same,Plot yields AR0T021,"trial AR0T021, Tammin, WA, variety Cobra, seed treatment, full plot harvest, untreated T1 = 100.00",107.62
same,Final emergence counts AR0T021,"trial AR0T021, Tammin, WA, variety Cobra, seed treatment, untreated T1 = 100.00",118.36
same,White heads DL0T013,"trial DL0T013, Bunnaloo, NSW, variety Aurora (Durum), seed treatment, % compared to untreated T1 = 100.00, at full ripe",92.59%
same,Plot yields DL0T013,"trial DL0T013, Bunnaloo, NSW, variety Aurora (Durum), seed treatment, full plot harvest, untreated T1 = 100.00",116.90
same,Final emergence counts DL0T013,"trial DL0T013, Bunnaloo, NSW, variety Aurora (Durum), seed treatment, untreated T1 = 100.00",100.80
same,White heads GS0T007,"trial GS0T007, Redhill, SA, variety Saintly (Durum), seed treatment, % compared to untreated T1 = 100.00, at full ripe",74.52%
same,Plot yields GS0T007,"trial GS0T007, Redhill, SA, variety Saintly (Durum), seed treatment, full plot harvest, untreated T1 = 100.00",162.86
same,Final emergence counts GS0T007,"trial GS0T007, Redhill, SA, variety Saintly (Durum), seed treatment, untreated T1 = 100.00",113.09
same,White heads N10T669,"trial N10T669, Bellata, NSW, variety Lillaroi (Durum), seed treatment, % compared to untreated T1 = 100.00, at full ripe",105.57%
same,Plot yields N10T669,"trial N10T669, Bellata, NSW, variety Lillaroi (Durum), seed treatment, full plot harvest, untreated T1 = 100.00",116.41
same,Final emergence counts N10T669,"trial N10T669, Bellata, NSW, variety Lillaroi (Durum), seed treatment, untreated T1 = 100.00",103.48
same,yield increase compared to other commercial treatments (in words),"wheat seed treatment, compared to commercial treatments T3-T5",more than double; also recorded: more than twice as much
